# Source: US20200268786A1, “RNA CONTAINING COMPOSITIONS AND METHODS OF THEIR USE” (Icahn School of Medicine at Mount Sinai, priority 2015, published 2020)
# Test system: human monocyte derived DCs (moDCs)
# Assay: cytokine production of human moDCs stimulated with ncRNA (DOTAP liposomal transfection or none)
# Type: cell-based
# Settings: DOTAP liposomal transfection, 2 ug/ml ncRNA
# Description: PCR products were purified by PCR-Cleanup (Qiagen) and controlled by electrophoresis (0.8% Agarose gel). RNAs were generated by in vitro transcription using the mMESSAGE mMACHINE T7 ultra kit (Ambion) followed by a capping and short polyA reaction. RNAs were then purified using RNA-cleanup (Qiagen), quantified using a nanodrop, and checked by electrophoresis after denaturation at 65° C. for 10 minutes (1 5% Agarose gel).
# MoDCs and imBM were both stimulated by i-ncRNA in the same way. The culturing of these cells is described below. Briefly, cells were plated in 96 flat well plates at 200,000 cells per well for primary cells (MoDCs) and 100,000 cells per well for lines (IMBM). i-ncRNA were transfected via liposomes formed using DOTAP (Roche Life Science) at a ratio of 1 μg DNA per 6 μl DOTAP diluted in HBS following the user-guide recommendations. The cells were stimulated using 2 μg/ml of purified i-ncRNA versus 10 μg/ml total RNA. To stimulate the TLR4 pathway, 100 ng/ml Ultrapure LPS (Invivogen) was used for TLR2: 500 ng/ml Pam2CSK4 (Invivogen) for TLR3: 2 μg/ml HMW PolyIC (Invivogen) TLR7/8: 1 μg/ml CLO97 (Invivogen) and 100 ng/ml R848 (Invivogen) TLR9: CpG B-ODN 1826 3 μM or STING CDN 5 μg/ml (Aduro).
# Human moDCs: Human monocyte derived DCs were differentiated as previously described (Frleta et al., “HIV-1 Infection-Induced Apoptotic Microparticles Inhibit Human DCs via CD44,” J. Clinical Invest. 122:4685 (2012), which is hereby incorporated by reference in its entirety). Briefly, PBMCs were prepared by centrifugation over Ficoll-Hypaque gradients (BioWhittaker) from healthy donor buffy coats (New York Blood Center). Monocytes were isolated from PBMCs by adherence and then treated with 100 U/ml GM-CSF (Leukine Sanofi Oncology) and 300 U/ml IL-4 (RandD) in RPMI plus 5% human AB serum (Gemini Bio Products). Differentiation media was renewed on day 2 and day 4 of culture. Mature moDCs were harvested for use on days 5 to 7. For all experiments, harvested DCs were washed and equilibrated in serum-free X-Vivo 15 media (Lonza).
Molecule,IL-6 production,IL-12 production,TNFalpha production
Poly-IC,induced a cellular inflammatory response,induced a cellular inflammatory response,induced a cellular inflammatory response
CCOCc1nc2c(N)nc3ccccc3c2n1CC(C)(C)O [R848],induced a cellular inflammatory response,induced a cellular inflammatory response,induced a cellular inflammatory response
